The values below come from article PMC7112222, “Investigation of pyrimidine nucleoside analogues as chemical probes to assess compound effects on the proliferation of Trypanosoma cruzi intracellular parasites” (PLoS Neglected Tropical Diseases, 2020).

Assay [1] concerns T. cruzi intracellular amastigotes. Briefly: Image-based assay of the number of T. cruzi infected cells (intracellular amastigotes in 3T3 host cells). The following applies: for IC50: highest test concentration 183 μM. Type of assay: cell-based, Trypanosoma cruzi. As for the experimental part:
(§1) Parasites and host cells were maintained as outlined previously. Briefly, host 3T3 fibroblasts (ATCC, CCL-92) were grown in RPMI medium (Thermo Fisher Scientific, USA) with no phenol red, supplemented with 10% FBS (Thermo Fisher Scientific, USA) and incubated at 37°C in 5% CO2. Host cells were harvested at 70% confluency and were split every 2–3 days in 175 cm^2 flasks. 3T3 cells were cultured up to passage 7 as contact inhibition was reduced or lost at higher passages. Prior to infection with T. cruzi trypomastigotes, host cells were seeded at 1.2 x 10^6 cells in 75 cm^2 or 4 x 10^5 cells in 25 cm^2 flasks and grown for 24 hours before parasite addition. Parasites were added at a multiplicity of infection (MOI) of 10:1 and incubated for 24 hours before non-infected trypomastigotes were washed off the host cell bed with PBS supplemented with Ca^2+ and Mg^2+ (Thermo Fisher Scientific, USA). Incubation was continued for a further 3 days, until tissue culture trypomastigotes began to egress from host cells. Egressed parasites were used for assays or to continue the infective life cycle in vitro.
The activity of the nucleoside analogues against T. cruzi intracellular amastigotes following 24, 48 hours exposure and compound wash off, was determined using image-based techniques as previously described. Briefly, 14-point serial dilutions of the compounds in 100% DMSO were prepared and then further diluted in sterile water at a ratio of 1:21 compound: water. Five microliters of the diluted compounds were added to wells of T. cruzi infected host cells, using a MiniTrak compound handling device (Perkin Elmer, USA) with final concentrations in the plate ranging from 183 μM to 4.6 x 10^−4 μM. All experiments were performed with two separate biological replicates.
IC50 values for inhibitory activity of both the nucleoside analogues tested as DNA probes and known inhibitors tested to determine their effect on replication of T. cruzi were calculated in GraphPad Prism 5, using sigmoidal dose response with variable slope. […] The p-value for difference in the % activity at Emax concentrations for compounds with known activity (EdU identified parasites, compared to Hoechst identified parasites) against T. cruzi was determined using GraphPad Prism 5, using an unpaired student’s t-test. […] The Emax for each compound was at least two data points in from the beginning of the plateau of activity in the IC50 curve, as previously described.

The test system of a further assay is 3T3 cells. Briefly: Image-based assay, effect on 3T3 host cells. The format is cell-based. As for the experimental part:
as §1
[…] Briefly, 14-point serial dilutions of the compounds in 100% DMSO were prepared and then further diluted in sterile water at a ratio of 1:21 compound: water. Five microliters of the diluted compounds were added to wells of T. cruzi infected host cells, using a MiniTrak compound handling device (Perkin Elmer, USA) with final concentrations in the plate ranging from 183 μM to 4.6 x 10^−4 μM. All experiments were performed with two separate biological replicates.
Image analysis was performed with a script developed in Columbus software (CHEMICAL LABEL INCORPORATION SCRIPT). Control wells were also imaged at an increased, 60x magnification to show the distribution of staining and the structure of the parasites within host cells. Eight background control wells consisted of infected host cells, fixed and exposed to Hoechst and the click chemistry cocktail, without the addition of the chemical probe EdU. […] The percentage activity of compounds against parasite number / infected cells (identified with Hoechst) was calculated against a positive control of 12 μM of NFX for the parasite and 30 μM of PURO the host cells; and a negative control of 0.47% DMSO. All images taken were not modified and were taken on an Opera, confocal image-based reader.

The subject of the next assay is HEK293 cells. Briefly: Redox-based assay to assess HEK293 viability. The format is cell-based, human. The settings on record: 48 hours exposure; highest test concentration 87 μM; EdU value estimated, relative to Emax plateau of 57%. As for the experimental part: To determine the effect of the nucleoside analogues against a replicating mammalian cell line, analogues were tested against HEK293 cells, utilising a REDOX-based metabolic assay to assess cell viability as previously described. […] Experiments were performed over two biological replicates.

For a further assay, the system named is T. cruzi amastigote DNA. Briefly: Incorporation of pyrimidine nucleoside analogues into T. cruzi amastigote DNA (click chemistry, colocalisation with Hoechst). The format is cell-based, Trypanosoma cruzi. Here is the method:
T. cruzi infected 3T3 fibroblasts were initially exposed to nucleoside analogues for 48 hours at concentrations ranging from 73 μM to 1.8 x10^-4 μM. Host cell, parasite and compound additions were carried out as previously described. Cells were then stained using a click chemistry azide cocktail, followed by Hoechst to identify nuclear material, as previously reported. The freshly prepared azide cocktail consisted of a final concentration of 5 μM of Alexa Fluor 488 azide (Thermo Fisher Scientific, USA), 1 mM copper sulfate (Sigma Aldrich, USA) and 100 mM sodium ascorbate (Sigma Aldrich, USA), in DPBS. Wells were imaged on an Opera image-based reader (Perkin Elmer, USA) at 20x magnification with 405 nm (defined as Hoechst channel) and 488 nm (defined as Alexa 488 channel) lasers using filter sets/bandwidth (emission) of 450/50 nm and 540/75 nm, respectively. To determine nucleoside analogue incorporation into T. cruzi amastigote DNA, a script was developed utilising the Columbus (PerkinElmer, USA) image-based analysis and data handling platform (CHEMICAL LABEL INCORPORATION SCRIPT). Nucleoside analogues were also tested for DNA incorporation following 2, 4 and 24 hours exposure, at the same concentrations. All experiments were performed in duplicate. The colocalisation of nucleoside analogues and Hoechst (replicating parasites) at each time point (48, 4 and 2 hours) was compared using GraphPad Prism 5.
A CHEMICAL LABEL INCORPORATION SCRIPT developed in Columbus firstly identified Hoechst stained parasites within host cells by spot analysis, utilizing the same building block analysis as we had previously developed to determine T. cruzi infected cells. The physical definition of amastigote DNA was identified by Hoechst, with the only modification being that as there was no cytoplasmic marker, thus segmentation borders in the Hoechst channel were applied, which effectively separated host cells (Fig 2). Further building blocks were added to calculate the intensity of Alexa Fluor 488 within the spots identified by Hoechst, in infected cells. This script was first applied to images to determine the mean fluorescence intensity in the Alexa 488 channel of Hoechst identified parasites, without the addition of the chemical label. The mean plus three times the standard deviation of this intensity was used to define values above background, thus the minimum intensity above background required to identify parasite DNA which successfully incorporated the chemical label. An input box was incorporated into the script, in which this minimum intensity above background was entered. Parameters of the developed script, “CHEMICAL LABEL INCORPORATION” are shown in S1 Table.
• Number of T. cruzi amastigote infected cells (≥5 parasites per cell, identified with Hoechst). • Number of Hoechst identified T. cruzi parasites (in infected cells). • Number of parasites incorporating chemical label (T. cruzi parasites with Alexa 488 intensity above background, in infected cells). • % chemical label incorporation. Alexa 488 spots in infected cells (above background) NO / Hoechst spots in infected cells NO *100 = Percentage colocalisation; where NO = number of objects. • Number of host cells.

Assay [2] has as its system T. cruzi intracellular amastigotes. Briefly: Image-based assay of the number of T. cruzi infected cells (intracellular amastigotes in 3T3 host cells). Type of assay: cell-based, Trypanosoma cruzi. The following applies: 2 and 4 hour exposures; 73 μM.
Assay [3] has the same test system. The arrangement: method as in PMID 27120069. The settings on record: treatment for 48 hours; cited from earlier work.

Structures can show the parent of a compound that is named as a salt. Where two headings read alike, the source gives them in different places.

One may read the IC50 as the concentration that inhibits the measured activity by half. A word on the Emax: it is the maximal effect, on the per cent scale that the assay sets. For the molecule `C#Cc1cn([C@H]2C[C@H](O)[C@@H](CO)O2)c(=O)nc1N` [EdC, 5-ethynyl-2′-deoxy-cytidine], the “SI (selectivity index to T. cruzi intracellular amastigotes in relation to HEK293 cells)” value in assay [1] (48 hours exposure) is above 26. In addition, in assay [1] (Trypanosoma cruzi, at 183 μM, 48 hours incubation, wash off, further 72 hours, read-out: T. cruzi Wash off percentage inhibition at the highest test concentration), the inhibition at 183 µM worked out at 90%. For the same molecule, the IC50 was 12.5 ± 2 µM in assay [1] (Trypanosoma cruzi, 24 hours exposure, read-out: T. cruzi 24 IC50 value) and 7.1 ± 3.7 µM in assay [1] (Trypanosoma cruzi, 48 hours incubation, read-out: T. cruzi 48 IC50 value). For the same molecule, the Emax in assay [1] (Trypanosoma cruzi, 24 hours exposure, read-out: T. cruzi 24 relative Emax (in brackets) (converted)) is 69%; in assay [1] (Trypanosoma cruzi, 48 hours incubation, read-out: T. cruzi 48 relative Emax (in brackets) (converted)), 87%. For the same molecule, the “activity against host cells after short exposure” value in the assay on 3T3 cells (2 and 4 hour exposures, 73 μM) is reported as “less than 20%”. Further, the “Host cell 3T3 IC50 value 48 h” value in the assay with 3T3 cells (48 h, highest test concentration 183 μM) was “NA (NA = ≤50% activity at the highest concentration tested and an IC50 value could not be determined)”. The “activity against 3T3 cells in the image-based assay” value in the assay on 3T3 cells (48 hours) is below 20%. Besides, the “HEK293 IC50 value” in the assay with HEK293 cells was “NA (NA = ≤50% activity at the highest concentration tested and an IC50 value could not be determined)”. In addition, the “% of parasites with incorporation” value in the assay with T. cruzi amastigote DNA (2 hours, 37 μM) came out at 71 ± 2.9%; with T. cruzi amastigote DNA (4 hours, 7.3 μM) it was 84 ± 3.5%. For the same molecule, in the assay on T. cruzi amastigote DNA (48 hours incubation), the “incorporation into T. cruzi DNA following 48 hours incubation (in words)” value is “incorporated”. Moreover, the “% of cells that incorporated the DNA chemical label” value with T. cruzi amastigote DNA (48 hours, 0.73 μM) came out at 89 ± 2.7%. The “activity against T. cruzi amastigote growth after short exposure” value in assay [2] was “less than 20%”.

Turning to `CN1CCC[C@@H]1CCO[C@](C)(c1ccccc1)c1ccc(Cl)cc1` [CF, clemastine fumarate], in assay [3], the “T. cruzi infected cells, identified with Hoechst, remaining” value is listed as 3%.
